Where a name gives a salt, the structure may show the parent alone. Read-outs that look alike come from different tables or passages of the source.
Tests used:
C57BL/6JOlaHsd mice [1] = format: in vivo
[2] = system: CB2 receptor knockout mice; format: in vivo
C57BL/6JOlaHsd mice [3] = assay: Ear scratch response (ESR) / grooming, urge-like behavior; format: in vivo
Method: 1. CB2 receptor selective ligands or CB2/SERM ligands were injected intraperitoneally or orally at doses of 0.001 to 100 mg/kg one to two hours before the injection of DOI. In order to test the effect of DOI on head twitch responses, ear scratch and grooming responses, DOI was intraperitoneally injected at a dose of 1 mg/kg.
ESR behavior is a measure for urge-like behavior and often preceded HTRs. The ESR is a rapid scratching movement of the head, neck, ears, or other body surfaces by either hindlimbs. The number of ESRs was manually counted. Every ESR was also counted as a grooming. In some experiments, each ESR was considered as a separate episode if the animal moved. In some experiments, each ESR was considered as a separate episode for every ESR.
Grooming behavior is a measure for anxiety. Grooming behavior in mice is characterized by licking its fur, groom with the forepaws, or scratch with any limb. Often the mouse will mix all of these grooming behaviors. The number of grooms was manually counted. In some experiments, each grooming behavior was considered as a separate episode if the animal moved its hindlimbs. In some experiments, each grooming behavior was considered as a separate episode for every grooming behavior.

mice = conditions: 5 mg/kg during postnatal days 5-13; measured at the age of 12 weeks; cited from earlier work
C57BL/6JOlaHsd mice [4] = assay: Marble burying test (MBT), compulsive behavior; format: in vivo; conditions: one hour after a single injection, age 6 weeks
Method: Mice were habituated to the test room for 1 h. A mouse was injected with DOI as above and then placed in the experimental cage (white plastic 36×24.5×14.5 cm) filled with 5 cm sawdust for 5 min, in the absence of marbles. The mouse was taken out and twenty black glass were arranged 4 by 5 with 7 cm apart and 1 cm apart from the wells of the cage. Each mouse was tested for its marble burying activity for 30 min. Activity was videotaped with EthoVision and buried marbles were counted manually at the end of the experiment (after 30 min). A marble considered as buried when it was sawdust-covered by two third of its volume.
Marbles that were moved were also counted.
With a view to study the effect of the JTE-907 and M1 compositions on repetitive behavior, C57BL/6JOlaHsd mice were intraperitoneally injected at age 6 weeks with a single dose of JTE-907 at 0.2-50 mg/kg, M1 at 0.2-50 mg/kg or equivalent vehicle. The number of buried marbles in the burying marble test by each mouse was recorded.

Sabra mice = assay: Ultrasonic vocals after postnatal SR141716A (vocal tic-like behavior); format: in vivo
osteoclastogenesis = conditions: Schuehly et al. 2011; cited from earlier work
GPR55 = GPR55 (Homo sapiens, UniProt Q9Y2T6); conditions: Schuehly et al. 2011; cited from earlier work
GPR55, sequence (Q9Y2T6 whole entry, species assumed): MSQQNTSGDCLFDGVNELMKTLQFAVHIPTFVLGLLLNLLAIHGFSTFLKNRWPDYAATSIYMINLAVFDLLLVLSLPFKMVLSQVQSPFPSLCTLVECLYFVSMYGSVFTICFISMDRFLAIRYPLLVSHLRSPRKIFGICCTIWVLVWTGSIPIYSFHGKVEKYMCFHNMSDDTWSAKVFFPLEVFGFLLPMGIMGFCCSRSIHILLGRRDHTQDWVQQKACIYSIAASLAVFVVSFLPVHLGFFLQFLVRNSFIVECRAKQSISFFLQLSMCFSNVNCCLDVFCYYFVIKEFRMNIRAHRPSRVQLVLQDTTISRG

cyclooxygenase 2 (COX-2) = molecular target: T1, cyclooxygenase 2 (COX-2) (Homo sapiens, UniProt P35354); conditions: Schuehly et al. 2011; cited from earlier work
T1 sequence (P35354 18-604): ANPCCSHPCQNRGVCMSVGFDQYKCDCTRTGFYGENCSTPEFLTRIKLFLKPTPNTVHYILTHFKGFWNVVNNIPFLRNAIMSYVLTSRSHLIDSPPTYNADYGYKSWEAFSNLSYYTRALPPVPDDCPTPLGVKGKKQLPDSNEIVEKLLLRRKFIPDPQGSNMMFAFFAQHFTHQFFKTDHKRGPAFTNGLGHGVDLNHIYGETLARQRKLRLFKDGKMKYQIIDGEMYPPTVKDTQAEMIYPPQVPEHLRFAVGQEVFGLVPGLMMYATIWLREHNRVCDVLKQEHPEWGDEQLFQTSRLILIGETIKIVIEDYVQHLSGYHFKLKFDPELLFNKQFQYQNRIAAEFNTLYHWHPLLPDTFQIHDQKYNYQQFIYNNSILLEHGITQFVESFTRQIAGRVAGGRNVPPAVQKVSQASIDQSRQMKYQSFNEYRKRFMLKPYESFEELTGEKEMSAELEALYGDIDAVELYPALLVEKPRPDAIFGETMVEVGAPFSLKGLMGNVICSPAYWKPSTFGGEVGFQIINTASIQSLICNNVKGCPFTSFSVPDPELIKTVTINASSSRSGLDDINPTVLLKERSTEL

[5] = system: Tourette syndrome (TS) patients; conditions: patient reports; cited from earlier work
[6] = model inducer, 1 mg/kg i.p., age three weeks up to 21 weeks
[7] = 0.2 mg/kg i.p. single dose, one hour before DOI 1 mg/kg i.p., age 3 weeks
[8] = 5 mg/kg i.p. single dose, one hour before DOI 1 mg/kg i.p., age 3 weeks
[9] = 1-20 mg/kg i.p., no DOI, age 6 weeks
[10] = 10 mg/kg i.p. single dose, one hour before DOI 1 mg/kg i.p., age 3 weeks

## COc1cc(CC(C)N)c(OC)cc1I.Cl (single isomer, unassigned; (-)) [DOI, (−)-1-(2,5-dimethoxy-4-iodophenyl)-2-aminopropane hydrochloride]
C57BL/6JOlaHsd mice [1]; [6]
  head twitch response: increased
[2]; model inducer, 1 mg/kg i.p., 6 weeks old
  HTR frequency in CB2 receptor knockout mice: increased
C57BL/6JOlaHsd mice [3]; [6]
  ear scratch response and grooming behavior: increased

## C=C1CC/C=C(\C)CC[C@@H]2[C@@H]1CC2(C)C [BCP, beta-caryophyllene]
C57BL/6JOlaHsd mice [1]; dose not stated
  DOI-induced repetitive head twitches: able to reduce

## CCCCCCC(C)(C)c1cc(OC)c([C@@H]2C=C(CO)[C@@H]3C[C@H]2C3(C)C)c(OC)c1 [HU-308, [(1R,2R,5R)-2-[2,6-dimethoxy-4-(2-methyloctan-2-yl)phenyl]-7,7-dimethyl-4-bicyclo[3.1.1]hept-3-enyl] methanol]
C57BL/6JOlaHsd mice [1]; [7]
  DOI-induced HTR frequency: reduced
C57BL/6JOlaHsd mice [1]; 0.2 mg/kg i.p., saline instead of DOI, age 3 weeks
  repetitive behavior (HTR) with the drug alone: significantly increased
C57BL/6JOlaHsd mice [1]; [8]
  DOI-induced HTR frequency: reduced
[2]; 5 mg/kg i.p., one hour before DOI 1 mg/kg i.p., male, age 6-21 weeks
  DOI-induced HTR frequency in CB2 receptor knockout mice: significantly reduces
mice
  motor tics/head twitches in the open field test: induce abnormal motor tics/head twitches

## CCCCCOc1c(OC)ccc2cc(C(=O)NCc3ccc4c(c3)OCO4)c(=O)[nH]c12 [JTE-907, N-(benzo[1,3]dioxol-5-ylmethyl)-7-methoxy-2-oxo-8-pentyloxy-1,2-dihydroquinoline-3-carboxamide]
C57BL/6JOlaHsd mice [1]; [7]
  DOI-induced HTR frequency: reduced
C57BL/6JOlaHsd mice [1]; [8]
  DOI-induced HTR frequency: reduced
C57BL/6JOlaHsd mice [4]; 5 mg/kg i.p.
  number of buried marbles: reduced

## C=CCc1ccc(O)c(-c2ccc(OC)c(CC=C)c2)c1 [MH, 2-(4-Methoxy-3-prop-2-enylphenyl)-4-prop-2-enylphenol]
C57BL/6JOlaHsd mice [1]; 1 mg/kg i.p. single dose, one hour before DOI 1 mg/kg i.p., age 3 weeks
  DOI-induced HTRs: reduced
C57BL/6JOlaHsd mice [1]; 1 mg/kg i.p. single dose, one hour before DOI 1 mg/kg i.p., age 6 weeks
  DOI-induced HTRs: reduced
C57BL/6JOlaHsd mice [1]; 1 mg/kg oral (gavage) in self-emulsifying oral formulation, two hours before DOI 1 mg/kg i.p., age 3 weeks
  DOI-induced HTR frequency: significantly reduced
C57BL/6JOlaHsd mice [1]; [8]
  DOI-induced HTR frequency: reduced
C57BL/6JOlaHsd mice [1]; 5 mg/kg i.p. single dose, one hour before DOI 1 mg/kg i.p., age 6 weeks
  DOI-induced HTRs: reduced
C57BL/6JOlaHsd mice [1]; 5 mg/kg oral (gavage) in self-emulsifying oral formulation, two hours before DOI 1 mg/kg i.p., age 3 weeks
  DOI-induced HTR frequency: significantly reduced
C57BL/6JOlaHsd mice [1]; [9]
  HTR induced by the drug alone: did not induce HTR at any dose
C57BL/6JOlaHsd mice [1]; i.p., 20 min from DOI injection, age 3 weeks vs 6 weeks
  effect to reverse DOI-induced HTR, comparison of ages: higher at age 3 weeks than 6 weeks
C57BL/6JOlaHsd mice [1]; oral formulation, age 3 weeks
  effect on DOI-induced HTR frequency, 1 mg/kg compared with 5 mg/kg: greater
C57BL/6JOlaHsd mice [3]; [9]
  urge-like response induced by the drug alone: did not induce urge-like response at any dose
C57BL/6JOlaHsd mice [3]; i.p., one hour before DOI 1 mg/kg i.p., dose not given
  frequency of DOI-induced ESR behavior (urge-like behavior): reduced
Sabra mice; SR141716A 5 mg/kg s.c. postnatal day 1-3, drug 5 mg/kg s.c. at age 13 days, one hour before recording
  vocal tic-like behavior (number of ultrasonic vocal events): significantly reduces
C57BL/6JOlaHsd mice [4]; 10 mg/kg i.p.
  number of buried marbles: reduced
osteoclastogenesis
  osteoclastogenesis: potently inhibits
GPR55
  GPR55 activity: not
Cyclooxygenase 2 (COX-2)
  COX-2 enzymatic activity: inhibits

## Cc1c(C(=O)NN2CCCCC2)nn(-c2ccc(Cl)cc2Cl)c1-c1ccc(Cl)cc1 [SR141716A]
Sabra mice; administered at the age of one to two days
  vocalization of mice pups vs control litter mates: higher level of vocalization and/or higher number of vocals

## CCN(CC)CCOc1ccc(C(=C(Cl)c2ccccc2)c2ccccc2)cc1 [clomiphene citrate]
C57BL/6JOlaHsd mice [1]; [10]
  DOI-induced HTR frequency: did not significantly reverse

## O=C(c1ccc(OCCN2CCCCC2)cc1)c1c(-c2ccc(O)cc2)sc2cc(O)ccc12 [raloxifene]
C57BL/6JOlaHsd mice [1]; [10]
  DOI-induced HTR frequency: reduced

## CCCCCc1cc(O)c2c(c1)OC(C)(C)[C@@H]1CCC(C)=C[C@@H]21 [Δ^9-tetrahydrocannabinol]
[5]
  tic frequency: ameliorate
